Drawing on PubChem BioAssay (NCI), this text covers TGI and GI50 for 18 compounds.

Test systems include A549 NSCLC; HCC-2998 colon; HCT-15 colon; LOX IMVI melanoma; M14 melanoma; NCI-H23 lung; RXF 393 renal; SF-268 CNS; SNB-19 CNS; U251 CNS.
Assay in all cases: inhibition of tumour cell growth, NCI panel, 48 h

Several values for one entry are separate records, joined by “and”; a condition that tells them apart may be missing. Equal entries are not always repeated.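 Five concentrations, 48 hours, 96-well plates. GI50 is the concentration that inhibits growth by half. The concentration for full growth arrest is given as TGI.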

Regarding `Cc1cc(O)c2c(c1O)C(=O)c1cccc(O)c1C2=O`, the TGI in the assay with A549 NSCLC, in the assay with HCC-2998 colon, in the assay with HCT-15 colon, in the assay with LOX IMVI melanoma, with M14 melanoma and with NCI-H23 lung was over 100 µM in each case. In addition, the TGI with RXF 393 renal, in the assay on SF-268 CNS, in the assay with SNB-19 CNS and in the assay with U251 CNS was over 100 µM in each case.
In the case of `O=[N+]([O-])c1ccc2nc(Cl)n[n+]([O-])c2c1`, the TGI in the assay on A549 NSCLC came to 42.6 µM; in the assay with HCC-2998 colon, 30.3 µM; with HCT-15 colon, 29.7 µM; with LOX IMVI melanoma, 5.23 µM; with M14 melanoma it was 27.5 µM; in the assay on NCI-H23 lung, 36.6 µM. In addition, the TGI with RXF 393 renal is 28.7 µM; in the assay on SF-268 CNS, 30.7 µM; with SNB-19 CNS it was over 61.5 µM; in the assay with U251 CNS, 31.3 µM.
On to `CC(=O)N1N=C(c2ccc3ccccc3c2O)CC1c1cccs1` (configuration not stated), for which the TGI with A549 NSCLC was 94.9 µM; in the assay on HCC-2998 colon it was 66 µM; with HCT-15 colon it was over 100 µM; with M14 melanoma it was 39.1 µM; in the assay on NCI-H23 lung it was over 100 µM; in the assay on RXF 393 renal it was 99.3 µM. The TGI in the assay on SF-268 CNS and in the assay with U251 CNS was over 100 µM each time.
In the case of `C(/C=C/c1ccccc1)=Nc1ccc2c(c1)Cc1ccccc1-2`, the TGI in the assay on A549 NSCLC was over 100 µM; in the assay on HCT-15 colon it was over 100 µM; with LOX IMVI melanoma, 63 µM; in the assay on M14 melanoma, over 100 µM; with NCI-H23 lung it was over 100 µM; in the assay on RXF 393 renal, over 100 µM. Moreover, the TGI is over 100 µM in the assay with SF-268 CNS, over 100 µM in the assay with SNB-19 CNS and 44.4 µM with U251 CNS.
Regarding `C=C(C)C(=O)O[C@H]1CC2=C[C@@H](C[C@@]3(C)O[C@@H]3[C@H]3OC(=O)C(=C)[C@@H]31)OC2=O`, the TGI with A549 NSCLC came to 27.1 µM; with HCC-2998 colon, 9.82 µM; in the assay on HCT-15 colon, 2.72 µM; in the assay on LOX IMVI melanoma, 1.29 µM; with NCI-H23 lung, 6.59 µM; in the assay with RXF 393 renal, 1.16 µM. Further, the figures for the TGI in the assay on SF-268 CNS, in the assay on SNB-19 CNS and in the assay with U251 CNS were 2.56 µM, 49.1 µM and 14.6 µM, respectively. Besides, the GI50 in the assay with HCT-15 colon was 0.773 µM; in the assay on SF-268 CNS it was 0.34 µM.
As to `CCOC1=NC(C(F)(F)F)(C(F)(F)F)N=C(N2CCOCC2)O1`, the TGI in the assay on A549 NSCLC, in the assay on HCC-2998 colon, in the assay on HCT-15 colon, with LOX IMVI melanoma, with M14 melanoma and in the assay on NCI-H23 lung was over 100 µM in each case. The TGI in the assay on RXF 393 renal, with SF-268 CNS, in the assay with SNB-19 CNS and in the assay on U251 CNS was over 100 µM each time.
For `COc1cc(C2S/C(=C/c3ccccc3)C(=O)N2c2ccc(NC(C)=O)cc2)cc(OC)c1OC` (configuration not stated), the TGI in the assay on A549 NSCLC was over 100 µM; with HCC-2998 colon, 52.3 µM; in the assay with HCT-15 colon, 46.7 µM; in the assay on LOX IMVI melanoma it was 63.7 µM; in the assay on M14 melanoma, 56.9 µM; in the assay on NCI-H23 lung, 66.8 µM. Besides, the TGI in the assay with RXF 393 renal was 63 µM; with SF-268 CNS, 83.3 µM; in the assay on SNB-19 CNS it was over 100 µM; in the assay on U251 CNS, 38.5 µM.
`COc1ccc(-c2csc(=Nc3ccccc3)n2CCCN(C)C)cc1`: the TGI in the assay on A549 NSCLC was 36.3 µM; in the assay on HCC-2998 colon it was 35.3 µM; in the assay with HCT-15 colon, over 100 µM; in the assay with M14 melanoma, 24.4 µM; in the assay on NCI-H23 lung it was 48.5 µM; in the assay on RXF 393 renal, 26.6 µM. Moreover, the TGI in the assay with SF-268 CNS was 56.4 µM; with SNB-19 CNS, 48.1 µM; with U251 CNS, over 100 µM.
For the compound `NC(CSCc1ccc(I)cc1)C(=O)O` (configuration not stated), the TGI in the assay with A549 NSCLC, in the assay with HCC-2998 colon, in the assay on HCT-15 colon, in the assay on LOX IMVI melanoma, in the assay with M14 melanoma and in the assay with NCI-H23 lung was over 100 µM throughout. Moreover, the TGI in the assay with RXF 393 renal, with SF-268 CNS, in the assay on SNB-19 CNS and with U251 CNS was over 100 µM in each case.
Consider `c1ccc(N2N=C(c3cccc(Nc4ccncc4)c3)CC2c2ccc3c(c2)OCO3)cc1` (configuration not stated), for which the GI50 was 1.84 µM in the assay with HCC-2998 colon; 1.49 µM in the assay on HCT-15 colon; 1.69 µM in the assay with LOX IMVI melanoma; 1.63 µM in the assay on M14 melanoma; 1.94 µM in the assay on NCI-H23 lung; 1.61 µM in the assay with RXF 393 renal. Further, the GI50 in the assay with SF-268 CNS was 1.79 µM; with SNB-19 CNS, 2.2 µM; in the assay on U251 CNS it was 1.81 µM. In addition, the TGI in the assay with HCC-2998 colon was 3.36 µM; in the assay on HCT-15 colon, 3.38 µM; in the assay on LOX IMVI melanoma, 3.08 µM; in the assay on M14 melanoma, 3.48 µM; with NCI-H23 lung, 4.04 µM; in the assay on RXF 393 renal, 3.06 µM. Moreover, the values for the TGI in the assay with SF-268 CNS, with SNB-19 CNS and with U251 CNS were 3.75 µM, 6.67 µM and 3.74 µM, respectively.
Turning to `Cc1nc2c(c(=O)[nH]1)S/C(=C(/C#N)c1nc3ccccc3[nH]1)N2c1ccccc1`, the TGI with A549 NSCLC, in the assay on HCC-2998 colon, in the assay on HCT-15 colon, with M14 melanoma, in the assay on NCI-H23 lung and with RXF 393 renal was over 100 µM each time. The TGI in the assay with SF-268 CNS, in the assay with SNB-19 CNS and with U251 CNS was over 100 µM in each case.
As to `Cc1c(C)c(C)c(CC2(C)CSC2)c(CC2(C)CSC2)c1C`, the TGI in the assay with A549 NSCLC, with HCT-15 colon, in the assay on LOX IMVI melanoma, in the assay on M14 melanoma, in the assay on RXF 393 renal and with SF-268 CNS was over 100 µM throughout. For the same compound, the TGI in the assay with SNB-19 CNS and in the assay with U251 CNS was over 100 µM throughout.
`CC[C@@H]1ON(C)[C@H]2CN(C)C(=O)[C@@H]12`: the TGI in the assay on A549 NSCLC, with HCC-2998 colon, with HCT-15 colon, in the assay with LOX IMVI melanoma, with M14 melanoma and in the assay on NCI-H23 lung was over 100 µM throughout. Besides, the TGI with SNB-19 CNS and in the assay on U251 CNS was over 100 µM throughout.
Consider `CCN1CCCC(C#N)(c2ccccc2)CC1` (configuration not stated), for which the TGI in the assay on A549 NSCLC, in the assay on HCC-2998 colon, in the assay on HCT-15 colon, in the assay on M14 melanoma, in the assay on NCI-H23 lung and in the assay on RXF 393 renal was over 100 µM throughout. The TGI in the assay with SF-268 CNS, with SNB-19 CNS and in the assay on U251 CNS was over 100 µM each time.
In the case of `CN(C)CCCC1c2ccccc2Oc2ccc(C(F)(F)F)cc21` (configuration not stated), the TGI with A549 NSCLC was found to be 29.8 µM; in the assay with HCC-2998 colon, 4.97 µM; in the assay on HCT-15 colon, 31.5 µM; with LOX IMVI melanoma, 31.6 µM; in the assay with M14 melanoma, 14.2 µM; in the assay with NCI-H23 lung, 36.6 µM. In addition, the TGI is 17.4 µM with RXF 393 renal, 28.5 µM in the assay on SF-268 CNS, 31.3 µM in the assay with SNB-19 CNS and 23.9 µM in the assay on U251 CNS.
Regarding `COc1ccc2c(c1O)-c1cc(O)cc3c1[C@@H](C2)N(C)CC3`, the TGI with A549 NSCLC was 138 µM; in the assay on HCC-2998 colon it was 139 µM; in the assay with HCT-15 colon, 140 µM; in the assay with LOX IMVI melanoma, 142 µM; in the assay with NCI-H23 lung it was 257 µM; in the assay with RXF 393 renal, 119 µM. Also, the figures for the TGI in the assay with SF-268 CNS, with SNB-19 CNS and in the assay on U251 CNS were 229 µM, 378 µM and 250 µM, respectively.
Regarding `NC(=S)N/N=C/c1nccc2ccccc12`, the TGI was over 100 µM in the assay with A549 NSCLC; over 100 µM with HCC-2998 colon; over 100 µM with HCT-15 colon; 2.64 µM in the assay on LOX IMVI melanoma; 6.42 µM with NCI-H23 lung; 0.902 µM with RXF 393 renal. In addition, the results for the TGI with SF-268 CNS, in the assay with SNB-19 CNS and with U251 CNS were 4.04 µM, 32.7 µM and over 100 µM, respectively.
With `COc1cc([C@@H]2c3cc4c(c(O)c3C[C@H]3COC(=O)[C@@H]32)OCO4)cc(OC)c1OC`, the GI50 is 0.274 µM in the assay with A549 NSCLC; < 0.0241 µM and 0.241 µM with HCC-2998 colon; 0.19 µM in the assay with HCT-15 colon; 0.334 µM in the assay with LOX IMVI melanoma; 0.281 µM in the assay on RXF 393 renal; 0.501 µM in the assay with SF-268 CNS. The GI50 in the assay on SNB-19 CNS is 0.114 µM; with U251 CNS, 0.183 µM. In addition, the TGI in the assay on M14 melanoma is over 122 µM; in the assay with U251 CNS it was over 100 µM.
